Experimental findings from patent publication US10376529B2, “Combination of pentacyclic triterpenes and hydroxytyrosol and derivatives thereof” (NATAC BIOTECH, S.L, priority 2013, dated 2019) are described below.

One experiment relates to NSC34 motor neurons. Kind of experiment: NSC34 motor neuron viability (MTT) after hydrogen peroxide insult. It counts as cell-based, murine. To be noted: H2O2 0.2 mM 30 min, MTT after 24 h. From the text: NSC34 murine spinal cord motor neuron derived cell line was used for this assay. This neuronal cell line is a classical in vitro platform validated for the study of neuroprotective agents. They share a lot of common physiological features with spinal cord neurons such as glutamate sensibility, acetyl choline secretion upon stimulation, functional neurites or characteristic neuronal sensibility and protection mechanisms against neurotoxic agents. Motoneuronal NSC-34 cells (Cedarlane, Burlington, Ontario, Canada) were cultured at 37° C. and 5% CO2 in Dulbecco's modified Eagle's medium (DMEM) supplemented with 10% fetal bovine serum (FBS), 1% penicillin/streptomycin and 0.04 mM L-glutamine. All reagents were purchased at Gibco-Invitrogen. NSC34 cells were seeded at low density (30000 cel/mL) in appropriate tissue culture vessels, 24-well plates for toxicity assays. In the experiments, cells were pretreated for 2 h with the compound of formula (I) (oleanolic acid, 4.44 mg/L), the compound of formula (II) (hydroxytyrosol, 1.54 mg/L) or the combination of the compound of formula (I) (oleanolic acid, 4.44 mg/L) and the compound of formula (II) (hydroxytyrosol, 1.54 mg/L). Stock solutions of the compounds (50 mM) were prepared in dimethylsulfoxide (DMSO, Sigma-Aldrich). Solutions for cell treatment were prepared by diluting stock solutions in culture media immediately before being added to the cells (DMSO concentration: 0.5%). Controls contained the same final concentration of vehicle as the compound-containing wells. Hydrogen peroxide (H2O2) stock was a 30% solution in water (Aldrich). The medium was removed and replaced with a suitable volume of fresh DMEM plus FBS (Gibco). Small hydrogen peroxide aliquots were then added to a final concentration of 0.2 mM. Cells were then exposed for 30 min at 37° C. After this time the medium was removed and replaced with fresh one. The compounds were maintained in the medium for 24 hours. After this 24 hours cell viability was tested using the 3-[4,5-dimethylthiazol-2-yl]-2,5-diphenyltetrazolium bromide (MTT, Sigma) assay. After color development (15 min at 37° C.), samples were measured at 570-620 nm on a microplate reader (BioTek ELX800, BioTek Instruments Inc., Vermont, USA). Mean values of at least three independent wells from three experiments were calculated, and cell survival expressed as percent […] signal compared with untreated control conditions.

The next experiment deals with BV2 microglia. Nature of the experiment: Nitric oxide production (nitrite, Griess reaction) by LPS plus IFNγ activated BV2 microglia. It counts as cell-based, mouse. To be noted: LPS 100 ng/mL + IFNγ 50 pg/mL, 24 h. Here is the method:
BV2 cells are a murine microglial-derived cell line widely used as in vitro model for the study of compounds that could modulate microglial mediated neuronal damage. When stimulated, BV2 microglia releases neurotoxic and neuroinflammatory factors such as tumor necrosis factor alpha (TNFα), interleukin 6 (IL6) or nitric oxide (NO).
The mouse microglial cell line BV-2 was purchased at the Istituto Nazionale per la Ricerca sul Cancro (1ST, Genova, Italy). BV-2 cells were cultured in RPMI-1640 medium (Gibco Invitrogen, Paisley, Scotland, UK) supplemented with 10% FBS and 0.1% penicillin-streptomycin (both from Gibco Invitrogen). Cells were maintained at 37° C. in a 5% CO2 humidified atmosphere. BV-2 microglial cells were seeded at a density of 5×10^4 cells/mL. The following day, cells were treated with the compound of formula (I), the compound of formula (II) or the combination of both compounds, 30 minutes before stimulation with LPS 100 ng/mL and gamma-interferon (IFNγ) 50 pg/mL (both from Sigma-Aldrich, St. Louis, Mo., USA). Control wells contained the same final concentration of vehicle as the compound-containing wells. Culture supernatants were collected 24 h after LPS/IFNγ stimulation and stored at −20° C. until assayed for nitrites analysis.
Nitrite levels, direct indicators of NO production, were quantified by the Griess reaction. Briefly, 50 μL of culture medium was mixed in a 96-well plate with 25 μL of Griess reagent A (sulfanilamide, Sigma-Aldrich) and 25 μL of reagent B (N-1-naphthyl ethylene-diamine, Sigma-Aldrich). After color development (10 min at 23 to 25° C.), samples were measured at 540 nm on a microplate reader (BioTek ELX800, BioTek Instruments Inc., Vermont, USA). Nitrite concentration was determined from a sodium nitrite standard curve. Values of at least three independent wells from three experiments were calculated.
The compound of formula (I) was oleanolic acid (4.44 mg/L), the compound of formula (II) was verbascoside (3.12 mg/L), and the combination of the compound of formula (I) and the compound of formula (II) comprised oleanolic acid (4.44 mg/L) and verbascoside (3.12 mg/L). Stock solutions of the compounds (50 mM) were prepared in dimethyl sulfoxide (DMSO, Sigma-Aldrich). Solutions for cell treatment were prepared by diluting stock solutions in culture media immediately before being added to the cells (DMSO concentration: 0.5%). Controls contained the same final concentration of vehicle as the compound-containing wells. Three independent experiments were carried out.
The procedures for this assay were as described above in Example 2, wherein the compound of formula (I) was maslinic acid (13.20 mg/L), the compound of formula (II) was verbascoside (3.12 mg/L), and the and the combination of the compound of formula (I) and the compound of formula (II) comprised maslinic acid (13.20 mg/L) and verbascoside (3.12 mg/L). Stock solutions of the compounds (50 mM) were prepared in dimethyl sulfoxide (DMSO, Sigma-Aldrich). Solutions for cell treatment were prepared by diluting stock solutions in culture media immediately before being added to the cells (DMSO concentration: 0.5%). Controls contained the same final concentration of vehicle as the compound-containing wells. Three independent experiments were performed.
(In general: Nitrite, measured by Griess reagent, commonly stands in for NO production.)

Setting [1] is: oleanolic acid 4.44 mg/L alone, listed as OLA.

On to `OCCc1ccc(O)c(O)c1` [hydroxytyrosol, 2-(3,4-dihydroxyphenyl)ethanol], for which the “NSC34 survival increase (vs. H2O2)” value in the experiment with NSC34 motor neurons (hydroxytyrosol 1.54 mg/L alone) is recorded as 21.67%; with NSC34 motor neurons (hydroxytyrosol 1.54 mg/L alone, listed as HST) it was 21.67%.
In the case of `CC1(C)CC[C@]2(C(=O)O)CC[C@]3(C)C(=CC[C@@H]4[C@@]5(C)CC[C@H](O)C(C)(C)[C@@H]5CC[C@]43C)[C@@H]2C1` [oleanolic acid], the “BV2 NO reduction (vs. LPS + IFNγ)” value in the experiment on BV2 microglia (oleanolic acid 4.44 mg/L alone) and in the experiment with BV2 microglia (setting [1]) was 17.33% throughout. In addition, the “NSC34 survival increase (vs. H2O2)” value with NSC34 motor neurons (oleanolic acid 4.44 mg/L alone) and with NSC34 motor neurons (setting [1]) was 5.33% in each case.
`CC1(C)CC[C@]2(C(=O)O)CC[C@]3(C)C(=CC[C@@H]4[C@@]5(C)C[C@@H](O)[C@H](O)C(C)(C)[C@@H]5CC[C@]43C)[C@@H]2C1` [maslinic acid]: the “BV2 NO reduction (vs. LPS + IFNγ)” value with BV2 microglia (maslinic acid 13.20 mg/L alone) is on record as 18.67%; with BV2 microglia (maslinic acid 13.20 mg/L alone, listed as MSA) it was 18.67%.
Turning to `C[C@@H]1O[C@@H](O[C@@H]2[C@@H](O)[C@H](OCCc3ccc(O)c(O)c3)O[C@H](CO)[C@H]2OC(=O)/C=C/c2ccc(O)c(O)c2)[C@H](O)[C@H](O)[C@H]1O` [verbascoside], the “BV2 NO reduction (vs. LPS + IFNγ)” value in the experiment on BV2 microglia (verbascoside 3.12 mg/L alone) worked out at 14.67%; in the experiment with BV2 microglia (verbascoside 3.12 mg/L alone, listed as VRB) it was 14.67%.
